Results published in patent US5525627A, “Esters of acyl carnitines with long-chain aliphatic alcohols and pharmaceutical compositions containing same having antimycotic activity” (Sigma-Tau Industrie Farmaceutiche Riunite S.p.A., priority 1992, dated 1996).

Assays:
Candida albicans (562) = experiment: MIC for yeast and yeast-like strains; assay type: cell-based; conditions: 48 hours, 35° C., read-out: Minimal Inhibitory Concentration (MIC)
Procedure: (§1) The following strains were used (the number of strains is in brackets): Candida (13); Criptococcus (2); Saccharormyces (1); Torulopsis (1).
(§2) Yeast Nitrogen Base supplemented with 0.15% asparagine and 1.0% glucose (as carbon source) was the medium utilized in the assays.
(§3) This medium was buffered with 0.165 M 2-(N-morpholino) propane sulfonic acid (MOPS), a non-chelating buffer. […]
(§4) The inoculum was prepared from an overnight broth culture (a 48-hour culture only for Cryptococcus) in Sabouraud broth and appropriately diluted to yield a final suspension containing approximately 5.0×10^6 Colony Forming Units per ml (CFU/ml), when compared to the Mc Farland's standard control (BRAY W. E., Clinical Laboratory Methods, 5th Ed. C. V. MOSBY, St. Louis, Mo, 1957).
(§5) After further diluting (1:50), a […] volume of such fungal suspensions and an equal volume of the substance solutions were distributed into each well of a microtiter plate (96 wells, round bottom). Such a procedure eventually allowed for an "in vitro" antimycotic activity assay utilizing final fungal inocula of approximately 5.0×10^4 CFU/ml.

Candida albicans (Ca 2) = experiment: MIC for yeast and yeast-like strains; assay type: cell-based; conditions: 48 hours, 35° C., read-out: Minimal Inhibitory Concentration (MIC)
Procedure: as §1, §2, §3, §4, §5

Candida krusei (ISS 1) = experiment: MIC for yeast and yeast-like strains; assay type: cell-based; conditions: Pichia kudriavzevii; 48 hours, 35° C.; read-out: Minimal Inhibitory Concentration (MIC)
Procedure: as §1, §2, §3, §4, §5

[1] = test system: Candida tropicalis (5705); experiment: MIC for yeast and yeast-like strains; assay type: cell-based; conditions: 48 hours, 35° C., read-out: Minimal Inhibitory Concentration (MIC)
Procedure: as §1, §2, §3, §4, §5

[2] = test system: Saccharomyces cerevisiae (ATCC 7752); experiment: MIC for yeast and yeast-like strains; assay type: cell-based; conditions: ATCC7752, 48 hours, 35° C., read-out: Minimal Inhibitory Concentration (MIC)
Procedure: as §1, §2, §3, §4, §5

yeast-like fungi = experiment: MIC / MFC for yeast-like fungi, all strains; assay type: cell-based, Candida, Cryptococcus, Saccharomyces, Torulopsis; conditions: versus susceptible strains; read-out: Mean MIC values
Procedure: as §1, §2, §3, §4, §5
(§6) The minimal fungicidal concentration was evaluated by spot-transferring onto Petri dishes, containing Sabouraud agar, 0.01-ml volumes of all the samples showing no visible fungal growth.

[3] = test system: Aspergillus fumigatus (ATCC 28212); experiment: MIC for filamentous fungi; assay type: cell-based; conditions: ATCC28212, read-out: Minimal Inhibitory Concentration (MIC)
Excerpt: (§7) The following strains were used (the number of strains is in brackets): Aspergillus (5); Fusarium (1); Mucor (1); Penicillium (1).
(§8) The tested substances were: ST 712, ST 722, ST 982, ST 983, ST 1000, ST 1001, ST 1032, ST 1033, ST 1034, ST 1036, ST 1037, ST 1038, ST 1050, ST 1051, ST 1052, ST 1053. The assay medium was the same as the one used in the previous study. The conidia from 72-hour cultures in Sabouraud agar, collected by washing with Sabouraud medium and Tween 80 (one drop of Tween per 10 ml of medium), were utilized as inoculum (5.0×10^4 CFU/ml).
(§9) The assay was performed using the same procedure as described for yeast-like fungi.
(§10) Also the evaluation of MIC and MFC was as reported previously.

[4] = test system: Aspergillus niger (ATCC 16404); experiment: MIC for filamentous fungi; assay type: cell-based; conditions: ATCC16404, read-out: Minimal Inhibitory Concentration (MIC)
Excerpt: as §7, §8, §9, §10

Fusarium sp. (ISS 1) = experiment: MIC for filamentous fungi; assay type: cell-based; conditions: read-out: Minimal Inhibitory Concentration (MIC)
Excerpt: as §7, §8, §9, §10

Mucor mucedo (ATCC 7941) = experiment: MIC for filamentous fungi; assay type: cell-based; conditions: ATCC7941, read-out: Minimal Inhibitory Concentration (MIC)
Excerpt: as §7, §8, §9, §10

Penicillium sp. (1302) = experiment: MIC for filamentous fungi; assay type: cell-based; conditions: read-out: Minimal Inhibitory Concentration (MIC)
Excerpt: as §7, §8, §9, §10

filamentous fungi = experiment: MIC / MFC for filamentous fungi, all strains; assay type: cell-based, Aspergillus, Fusarium, Mucor, Penicillium; conditions: versus susceptible strains; read-out: Mean MIC values
Excerpt: as §7, §8, §9, §10

[5] = test system: Epidermophyton floccosum (IHEM 3495); experiment: MIC for dermatophytic fungi; assay type: cell-based; conditions: 35° C., 96 hours, read-out: Minimal Inhibitory Concentration (MIC)
Procedure: (§11) The following strains were used: Trichophyton menthagrophytes ATCC 9533, Trichophyton rubrum IHEM 4274, Microsporum canis IHEM 3522, Epydermophyton floccosum IHEM 3495. The tested substances were: ST 722, ST 1033, ST 1037, ST 1050, ST 1051, ST 1052,. ST 1053.
(§12) The assay was performed following the same procedure described for the yeasts, by using 7-day fungi cultures grown at 30° C. in Potato Dextrose agar, and harvested with Sabouraud broth and Tween 80 (0.5%).
(§13) After washing with Yeast Nitrogen Base, supplemented with asparagine and glucose (as carbon source), the fungal suspension was fragmented using a tissue grinder until the largest clumps or aggregates were undetectable within the grinder. This fungal suspension was then appropriately diluted in YNB to yield a concentration of 2.0×10^5 infective particles/ml (small mycelium fragments, micro-and macroaleuriospores).
(§14) Volumes of 100 μl both of the fungal suspensions and substance solutions, two-fold serially diluted in assay medium, were distributed into each well of a microtiter plate (96 wells, round bottom), which was incubated at 35° C. for 96 hours.

[6] = test system: Microsporum canis (IHEM 3522); experiment: MIC for dermatophytic fungi; assay type: cell-based; conditions: 35° C., 96 hours, read-out: Minimal Inhibitory Concentration (MIC)
Procedure: as §11, §12, §13, §14

[7] = test system: Trichophyton menthagrophites (ATCC 9533); experiment: MIC for dermatophytic fungi; assay type: cell-based; conditions: ATCC9533, 35° C., 96 hours, read-out: Minimal Inhibitory Concentration (MIC)
Procedure: as §11, §12, §13, §14

[8] = test system: Trichophyton rubrum (IHEM 4274); experiment: MIC for dermatophytic fungi; assay type: cell-based; conditions: 35° C., 96 hours, read-out: Minimal Inhibitory Concentration (MIC)
Procedure: as §11, §12, §13, §14

dermatophytic fungi = experiment: MIC / MFC for dermatophytic fungi, all strains; assay type: cell-based, Trichophyton, Microsporum, Epidermophyton; conditions: versus susceptible strains
Procedure: as §11, §12, §13, §14

Candida albicans (A 54) = experiment: MIC for yeast and yeast-like strains; assay type: cell-based; conditions: 48 hours, 35° C., read-out: Minimal Inhibitory Concentration (MIC)
Procedure: as §1, §2, §3, §4, §5

[9] = test system: Cryptococcus neoformans (4711); experiment: MIC for yeast and yeast-like strains; assay type: cell-based; conditions: 48 hours, 35° C., read-out: Minimal Inhibitory Concentration (MIC)
Procedure: as §1, §2, §3, §4, §5

[10] = test system: Torulopsis candida (D.S.); experiment: MIC for yeast and yeast-like strains; assay type: cell-based; conditions: Suzukiozyma candida; 48 hours, 35° C.; read-out: Minimal Inhibitory Concentration (MIC)
Procedure: as §1, §2, §3, §4, §5

Candida albicans (PG) = experiment: MIC and MFC for yeast and yeast-like strains; assay type: cell-based; conditions: 48 hours, 35° C., read-out: Minimal Inhibitory Concentration (MIC)
Procedure: as §1, §2
(§15) This medium was buffered with 0.165 M 2-(N-morpholino) propane sulfonic acid (MOPS), a non-chelating buffer.
(§16) Antimicrob. Agents Cheroother. Aug. 34.8:1542-1545).
as §4, §5, §6

[11] = test system: Candida albicans (ATCC 2091); experiment: MIC for yeast and yeast-like strains; assay type: cell-based; conditions: ATCC2091, 48 hours, 35° C., read-out: Minimal Inhibitory Concentration (MIC)
Procedure: as §1, §2, §15, §16, §4, §5

Candida albicans (ISS 1) = experiment: MIC for yeast and yeast-like strains; assay type: cell-based; conditions: 48 hours, 35° C., read-out: Minimal Inhibitory Concentration (MIC)
Procedure: as §1, §2, §15, §16, §4, §5

Candida glabrata (ISS 1) = experiment: MIC for yeast and yeast-like strains; assay type: cell-based; conditions: Nakaseomyces glabratus; 48 hours, 35° C.; read-out: Minimal Inhibitory Concentration (MIC)
Procedure: as §1, §2, §15, §16, §4, §5

[12] = test system: Candida guilliermondii (ISS 1); experiment: MIC for yeast and yeast-like strains; assay type: cell-based; conditions: Meyerozyma guilliermondii; 48 hours, 35° C.; read-out: Minimal Inhibitory Concentration (MIC)
Procedure: as §1, §2, §15, §16, §4, §5

[13] = test system: Candida parapsilosis (ISS 1); experiment: MIC for yeast and yeast-like strains; assay type: cell-based; conditions: Lodderomyces parapsilosis; 48 hours, 35° C.; read-out: Minimal Inhibitory Concentration (MIC)
Procedure: as §1, §2, §15, §16, §4, §5

[14] = test system: Candida pseudotropicalis (EC 1); experiment: MIC for yeast and yeast-like strains; assay type: cell-based; conditions: Kluyveromyces marxianus; 48 hours, 35° C.; read-out: Minimal Inhibitory Concentration (MIC)
Procedure: as §1, §2, §15, §16, §4, §5

[15] = test system: Candida tropicalis (ISS 1); experiment: MIC for yeast and yeast-like strains; assay type: cell-based; conditions: 48 hours, 35° C., read-out: Minimal Inhibitory Concentration (MIC)
Procedure: as §1, §2, §15, §16, §4, §5

[16] = test system: Cryptococcus neoformans (ISS 1); experiment: MIC for yeast and yeast-like strains; assay type: cell-based; conditions: 48 hours, 35° C., read-out: Minimal Inhibitory Concentration (MIC)
Procedure: as §1, §2, §15, §16, §4, §5

[17] = test system: Aspergillus fumigatus (1/A); experiment: MIC for filamentous fungi; assay type: cell-based; conditions: read-out: Minimal Inhibitory Concentration (MIC)
Excerpt: as §7, §8, §9, §10

[18] = test system: Aspergillus fumigatus (2/A); experiment: MIC for filamentous fungi; assay type: cell-based; conditions: read-out: Minimal Inhibitory Concentration (MIC)
Excerpt: as §7, §8, §9, §10

[19] = test system: Aspergillus fumigatus (C/1); experiment: MIC for filamentous fungi; assay type: cell-based; conditions: read-out: Minimal Inhibitory Concentration (MIC)
Excerpt: as §7, §8, §9, §10

Structure (SMILES) | MIC (Candida albicans (562)) [µg/mL] | MIC (Candida albicans (Ca 2)) [µg/mL] | MIC (Candida krusei (ISS 1)) [µg/mL] | MIC [1] [µg/mL] | MIC [2] [µg/mL] | MIC (yeast-like fungi) [µg/mL] | MIC [3] [µg/mL] | MIC [4] [µg/mL] | MIC (Fusarium sp. (ISS 1)) [µg/mL] | MIC (Mucor mucedo (ATCC 7941)) [µg/mL] | MIC (Penicillium sp. (1302)) [µg/mL] | MIC (filamentous fungi) [µg/mL] | MIC [5] [µg/mL] | MIC [6] [µg/mL] | MIC [7] [µg/mL] | MIC [8] [µg/mL] | MIC (dermatophytic fungi) [µg/mL] | MIC (Candida albicans (A 54)) [µg/mL] | MIC [9] [µg/mL] | MIC [10] [µg/mL] | other results
CCCCCCCCCCCCCOC(=O)C[C@H](C[N+](C)(C)C)OC(=O)CCCCC [ST 1052] | 3.12 | 1.56 | 3.12 | 3.12 | 3.12 | 2.8 | 3.12 | 3.12 | 6.25 | 6.25 | 3.12 | 4.37 | 25 | 6.25 | 12.5 | 6.25 | 12.5 |  |  |  | 
CCCCCCCCCCCOC(=O)C[C@H](C[N+](C)(C)C)OC(=O)CCCCCC [ST 1036] | 1.56 | 1.56 | 1.56 | 3.12 | 3.12 | 2.84 | 3.12 | 3.12 | 3.12 | 6.25 | 3.12 | 4.29 |  |  |  |  |  | 1.56 | 1.56 | 3.12 | MIC (Candida albicans (PG)): 3.12 µg/mL; MIC [11]: 1.56 µg/mL; MIC (Candida albicans (ISS 1)): 1.56 µg/mL; MIC (Candida glabrata (ISS 1)): 3.12 µg/mL; MIC [12]: 6.25 µg/mL; MIC [13]: 6.25 µg/mL; MIC [14]: 6.25 µg/mL; MIC [15]: 3.12 µg/mL; MIC [16]: 3.12 µg/mL; MIC [17]: 6.25 µg/mL; MIC [18]: 6.25 µg/mL; MIC [19]: 3.12 µg/mL
CCCCCCCCCCCOC(=O)C[C@H](C[N+](C)(C)C)OC(=O)CCC(C)C [ST 1034] | 1.56 | 1.56 | 1.56 | 3.12 | 3.12 | 3.03 | 6.25 | 6.25 | 3.12 | 12.5 | 3.12 | 5.85 |  |  |  |  |  | 1.56 | 1.56 | 3.12 | MIC (Candida albicans (PG)): 3.12 µg/mL; MIC [11]: 1.56 µg/mL; MIC (Candida albicans (ISS 1)): 1.56 µg/mL; MIC (Candida glabrata (ISS 1)): 3.12 µg/mL; MIC [12]: 6.25 µg/mL; MIC [13]: 6.25 µg/mL; MIC [14]: 6.25 µg/mL; MIC [15]: 3.12 µg/mL; MIC [16]: 3.12 µg/mL; MIC [17]: 6.25 µg/mL; MIC [18]: 3.12 µg/mL; MIC [19]: 6.25 µg/mL
CCCCCCCCCCCCCOC(=O)C[C@H](C[N+](C)(C)C)OC(=O)CCCCCC [ST 1050] | 6.25 | 3.12 | 3.12 | 6.25 | 3.12 | 4.37 | 6.25 | 6.25 | 6.25 | 12.5 | 3.12 | 6.85 | 50 | 12.5 | 12.5 | 6.25 | 20.3 |  |  |  | 
